Laboratory results: patent publication US20030148966A1, “Method and composition for inducing apoptosis in cells” (priority 2002, published 2003)
Several values for one entry are separate records, joined by “and”; a condition that tells them apart may be missing. Equal values may be shown once. Read-outs that look alike come from different tables or passages of the source.

Assays:
[1] = test system: HL-60 cells; details: 48 hours
[2] = test system: leukemia cells; assay: Oncolytic activity against leukemia cells; format: cell-based
[3] = test system: HL-60 cells; assay: Comet assay (single cell gel electrophoresis), DNA strand breaks; format: cell-based, human; details: for DNA single strand breaks: alkaline pH (13.0); for DNA tail length: % of cells <= 25 μm: 16 hours, alkaline pH 13.0
[4] = test system: HL-60 cells; assay: ATP bioluminescence assay (intracellular ATP content); format: cell-based, human; details: 16 hours, percent of untreated control
Description: ATP content was measured with the ATP bioluminescence assay kit HS II from Boehringer Mannheim (Roche Molecular Biochemicals, Mannheim, Germany). Cells were treated with adenosine and BR for 16 hours, and subsequently their viability was measured by trypan blue exclusion. […] An equal amount of cell lysis reagent was then added, and after an incubation period of 5 minutes at room temperature, the samples were transferred to microtiter plates. A Luciferase reagent (100 μl) was added and the signal was detected immediately on a lumi Imager F1 (Roche). Experiments were done in triplicates, and the values of treated samples calculated as percent of untreated controls. […] Cells were harvested and the intercellular ATP content was measured as described in herein. Statistical analysis by t-test confirmed that the differences between ATP-levels after treatment with BR (+/−adenosine) were significant (p<0.05).

[5] = test system: HL-60 cells; assay: Deoxyribonucleotide (dNTP) extraction and DNA-polymerase assay; format: cell-based, human; details: 16 hours; for % dATP / % dCTP: percent of control
Description: The TCA extract was dried using a Speedvac drying system at room temperature and, if necessary, stored at −20° C. until analysis. The assay for dNTP, which is based on the original DNA-polymerase assay^22, was optimized by the use of 96-well plates^23 and tailor-made oligonucleotides^24,25, and was performed as previously described for dCTP^21. After reconstitution of the samples in Hepes-buffered assay buffer (pH 7.3) at 10^7 cells/ml, samples and standards (0, 1, 2.5 and 5 pmol dNTP) were added to diethylaminoethyl (DEAE) filter plates (Millipore, Ettenleur, The Netherlands). This was followed by the addition of demi water (up to 30 μl if a reaction mix, consisting of 10 μl [8-^3H]dATP (25 μM; 1.6 Ci/mmol; 0.04 μCi/μl) for detection of dCTP, dTTP and dGTP and 10 μl[CH3-^3H]dTTP (25 μM; 1.6 Ci/mmol; 0.04 μCi/μl) for dATP detection, 5 μl appropriate oligonucleotide (6 μM. consisting of a primer attached to one of four possible templates specially designed for the detection of one of the four dNTPs), 5 μl Klenow DNA pol I and […] assay buffer. The filterplates were gently vortexed and incubated at room temperature for 2 hours. The wells were washed, the wet filters punched out and radioactivity counted as described^21. The dNTP levels were determined after 16-hours of treatment. At this time point, cells were still alive and membranes intact, preventing non-specific loss of dNTP's^33. […] Whereas, dCTP (89% of control)- and dATP (81% of control)-levels were in the range of control when cells were treated with 5 μM BR, exposure to 20 μM BR, caused a drop in dCTP and dATP levels to 37% and 33%, respectively.

[6] = test system: HL-60 cells; assay: Western blots: PARP, gelsolin and Caspase 3 cleavage; format: cell-based, human
Description: Cells from treated and untreated cultures were sedimented, washed in cold PBS, and lysed in SDS sample buffer (25 mM TRIS pH 6.8, 3% SDS, 10% glycerol, 36 mM DTT, 0.925 mM EDTA). Equal amounts of protein (calculated with the Dot Metric Protein Assay Kit from Novus Molecular, San Diego, Calif., USA) were loaded onto 10% or 15% polyacrylamide gels. Proteins were electrophoresed at 80 V for 2 to 3 hours, and then transblotted onto PVDF membranes (Hybond P, Amersham International, UK) at 80 V for 2 hours^20. Membranes were quenched in PBS with 0.5% skim milk and 0.05% Tween 20 for 1 hour, incubated with primary antibodies (mouse monoclonal anti PARP C-2-10 used 1:2000, mouse monoclonal anti-gelsolin used 1:2000, Sigma; rabbit polyclonal anti caspase 3 antibody used 1:1000, St. Cruz) overnight at 4° C., and with horseradish peroxidase, conjugated secondary antibody for 2 hours at room temperature. The ECL kit (Amersham International, UK) was used for blot development; chemiluminescence was detected on Kodak Xomat UV films.
Controls were treated with saline for 24 hours and western blots were performed as described herein. The 89 kD cleavage product of PARP and the 41 kD cleavage product of gelsolin could be detected upon treatment with 5 μM and 10 μM BR, and diminished in response to higher doses of BR.
5 μM and 10 μM BR, which mainly induce apoptosis, triggering processing of caspase 3.20 μM and 40 μM BR mainly provokes necrosis. This is also reflected by the reduced levels of activated caspase 3. In the presence of adenosine, 20 μM and 40 μM BR activate caspase 3 and also induce apoptosis. Equal sample loading was controlled by Ponceau S staining.

[7] = test system: HL-60 cells; assay: Transmission electron microscopy of cell morphology; format: cell-based, human; details: 48 hours
Description: For transmission electron microscopy (TEM) cells treated with PBS (controls), […] glutaraldehyde (in 0.1 M sodium cacodylate buffer with 4% sucrose, pH 7.2) for 45 minutes, washed in sodium cacodylate buffer and post-fixed in 2% osmium tetroxide (in 0.1 M sodium cacodylate buffer with 4% sucrose) for 45 minutes. Following several washes, the cells were concentrated by centrifugation at 150 g for 5 minutes, dehydrated in a graded series of ethanol, washed in propylene oxide, embedded in Epon (Serva, Germany), and sectioned at about 70 nm. The ultra-thin sections were stained with uranyl acetate/lead citrate for observation with a Zeiss EM 902 transmission electron microscope.
The bars at the lower right corners indicated 1.1 μm.

[8] = in vitro; details: human

For `CC1=C(/C=C/C(C)=C/C=C/C(C)=C/C(=O)O)C(C)(C)CCC1` [ATRA, all-trans retinoic acid, reference compound], the “% apoptotic cells” value ([1]; 120 μM ATRA) was 30% and the “% necrotic cells” value ([1]; 120 μM ATRA) was 45%.
In the case of `NC(=O)c1cccc([C@@H]2O[C@H](CO)[C@@H](O)[C@H]2O)c1` [BR, benzamide riboside], the “concentration range of strong oncolytic activity” value [2] is reported as 5 to 10 µM, the “DNA single strand breaks” value ([3]; 5 μM BR) is reported as “but not with 5 μM BR treatment” and the “DNA tail length: % of cells <= 25 μm” value ([3]; 20 μM BR +/- adenosine) is reported as 50% <= 25 μm. The “DNA double strand breaks” value ([3]; 20 μM BR, 8 hours, neutral pH (7.5)) was “induced DNA double strand breaks”, the “DNA single strand breaks” value ([3]; 20 μM BR) was “DNA single strand breaks occurred” and the “% apopt” value ([1]; 5 μM BR +/- adenosine) was 69%. For the same compound, the “% necro” value ([1]; 5 μM BR +/- adenosine) was 2%, the “% total death” value ([1]; 5 μM BR +/- adenosine) was 71% and the “% viable + apopt” value ([1]; 5 μM BR +/- adenosine) was 98%. The “% apopt” value ([1]; 20 μM BR +/- adenosine) was 30%, the “% necro” value ([1]; 20 μM BR +/- adenosine) was 51% and the “% total death” value ([1]; 20 μM BR +/- adenosine) was 81%. For the same compound, the “% viable + apopt” value ([1]; 20 μM BR +/- adenosine) was 49%, the “% ATP” value ([4]; 5 μM BR +/- adenosine (800 μM)) was 50% and the “% ATP” value ([4]; 20 μM BR +/- adenosine (800 μM)) was 3% and 2.7%. The “% dATP” value ([5]; 5 μM BR +/- adenosine) was 81%, the “% dCTP” value ([5]; 5 μM BR +/- adenosine) was 89% and the “dGTP levels, % of control” value ([5]; 5 μM or 20 μM BR) was “approximately 53%”. For the same compound, the “% dATP” value ([5]; 20 μM BR +/- adenosine) was 33%, the “% dCTP” value ([5]; 20 μM BR +/- adenosine) was 37% and the “cell death and gelsolin cleavage” value ([6]; 0.5 μM, 1 μM or 2 μM BR, 24 hours) was “neither induced cell death, nor gelosin cleavage”. The “Caspase 3 activation (p20 kD fragment)” value ([6]; 5 μM and 10 μM BR, 24 hours) was “Caspase 3 activation culminated”, the “cell death mode; gelsolin (41 kD) and PARP (89 kD) fragmentation” value ([6]; 5 μM or 10 μM BR, 24 hours) was “caused apoptosis” and the “cell death mode; PARP and gelsolin fragmentation” value ([6]; 20 μM BR, 24 hours) was “increase of the fraction of necrotic cells”. The “Caspase 3 activation (p20 kD fragment)” value ([6]; 20 μM or 40 μM BR +/- 800 μM adenosine) was “activation was inhibited”, the “cell morphology by electron microscopy” value ([7]; 5 μM BR) was “electron dense chromatin marginated at the nuclear envelope as a hallmark of apoptosis” and the “cell morphology by electron microscopy” value ([7]; 20 μM BR) was “typical necrotic morphology”.
With `Nc1ncnc2c1ncn2[C@@H]1O[C@H](CO)[C@@H](O)[C@H]1O` [Ade, adenosine, reference compound] the viability at 48 h, 800 µM [8] was 93%, the “DNA tail length: % of cells <= 25 μm” value ([3]; adenosine alone) was 98% <= 25 μm and the “% apopt” value ([1]; adenosine alone) was 7%. The “% necro” value ([1]; adenosine alone) was 0%, the “% total death” value ([1]; adenosine alone) was 7% and the “% viable + apopt” value ([1]; adenosine alone) was 100%. For the same compound, the “% ATP” value ([4]; adenosine alone (800 μM)) was 85%, the “% dATP” value ([5]; adenosine alone) was 70% and the “% dCTP” value ([5]; adenosine alone) was 64%.
